System: LL-37
Assay: Induction of LL-37 gene expression in skin explant, systemic treatment, quantitative RT-PCR
Type: cell-based, human
Settings: 30 µg/ml
Excerpt: Il est connu de WO 97/45101 que les esters d'α-alkylglucoside peuvent être utilisés comme agent anti-microbien et/ou anti-fongique pour agir en tant que conservateur dans une composition, pour la préserver d'un développement microbien. […]

laurate de butylglucoside [αβ-LBG brut]
FI, LL-37 (2 h): 6
FI, LL-37 (up to 24 h, in words): reste stable jusqu'à 24 h

Source: patent publication EP1978972B1, “USE OF ALKYLGLUCOSIDE ESTERS AS BETA-DEFENSIN INDUCERS” (Pierre Fabre Dermo-Cosmétique, priority 2006, dated 2007)
